Entries after “also recorded” stand apart in the source; their conditions may differ.
System: Hep3B and U2OS cells
Experiment: Immunoblot of HIF-1α and CA-9 in cells exposed to inhibitor
Type: cell-based, human
Conditions: 0.1 or 1 mM, 6 hours; for HIF-1α level (immunoblot): normoxic culture
Description: We went on to test a series of 2-oxoglutarate analogues which act as competitive inhibitors of this class of enzyme (29) for ability to inhibit HIF-PH as assessed by the ability of cell extracts to modify either HIF polypeptide (19:WT) or a HIF fusion protein (Gal/HIF-1α549-582/VP16) so as to promote pVHL capture. Concordant results were obtained with both sources of HIF sequence. In one such experiment the effect of N-oxalylglycine on pVHL capture by a biotinylated HIF polypeptides as substrate was monitored. The WT:19 and 19:Pro564Hyp polypeptides described above were used as substrates. […] Inhibition by N-Oxalylglycine was overcome by addition of 5 mM 2-oxoglutarate. As previously, 19:Pro564Hyp captured pVHL efficiently without modification by cell extract, and this was not influenced by exposure to N-oxalylglycine. […] We also used a 2-oxoglutarate dependent dioxygenase, phytanoyl-CoA α-hydroxylase (30), together with a readily available unnatural substrate (isovaleryl CoA) (31) to deplete the cell extract of 2-oxoglutarate produced by the citric acid cycle; as predicted, this prevented the subsequent modification of HIF polypeptide. The effect of dimethyl-oxalyglycine on HIF-1α expression was also studied. HIF-1α immunoblot analysis of extracts of Hep3B and U2OS cells exposed to dimethyl-oxalylgylcine (0, 0.1 or 1.0 mM) for 6 hours was carried out.
Hep3B and U2OS cells were exposed to either 0.1 mM or 1 mM dimethyloxalylglycine for 6 hours, harvested and assayed by immunoblotting (Western blotting) for changes in the level of HIF-1α and CA-9 expression. Controls, where no inhibitor was added, were also performed. […] Upregulation of HIF-1α increased with increasing concentration of dimethyloxalylglycine, whilst the level of CA-9 expression was similar after exposure to both 0.1 and 1 mM of dimethyloxalylglycine.

COC(=O)CNC(=O)C(=O)OC [dimethyloxalylglycine]
CA-9 expression (immunoblot): Clear upregulation
HIF-1α level (immunoblot): increase intracellular levels of HIF-1; also recorded: Clear upregulation
HIF-1α level (immunoblot) (listed as dimethyl-oxalylgylcine): strongly induced

From patent publication US9844546B2, “Antibody against human HIF hydroxylase” (OXFORD UNIVERSITY INNOVATION LIMITED, priority 2001, dated 2017)
